How the values were obtained:
[1] = tested on: myeloperoxidase accumulation (acetic acid-induced colitis); experiment: Acetic Acid-Induced Colitis in Rats, In Vivo; parameters: species or system male rats (Sprague-Dawley)
Excerpt: The rat acetic acid-induced colitis bioassay has been described by J. E. Krawisz, et al. in Amer. J. Proc. Gastro. Col. Rec. Surg. 31: 11-18 (1980), and by P. Sharon and W. F. Stenson in Gastroenterolgy 88: 55-63 (1985) and 86: 453-460 (1984). Acetic acid-induced colitis is characterized by the movement of inflammatory cells into the colon, with the number of such cells in the mucosa being measured by the activity of myeloperoxidase, a marker enzyme for these cells. Positive desirable activity is indicated by a reduction in the high levels of myeloperoxidase caused by acetic acid. Male rats (Sprague-Dawley), weighing 150 to 300 g, were pretreated twice daily for two days with either the vehicle (water, or dimethylsulfoxide) or the test inhibitor compound suspended in water or dissolved in dimethylsulfoxide and orally administered. On the third day, the animals were dosed the same as on the previous two days, anesthetized with metofane, and 2 ml of 2.5% acetic acid was injected by syringe into the colonic lumen, followed immediately by 3 ml of air and a rinse consisting of 3 ml of phosphate-buffered saline (the acetic acid is present in the lumen for a sufficient period to cause inflammation without producing severe necrosis or irreversible damage). The animals were administered a second dose of the test compound in the same amount about 16 hours later. 24 hours after the acetic acid treatment, the animals were sacrificed, the colonic mucosa was surgically removed and homogenized in an aqueous buffer at pH 6 with a Tissumizer or similar device and myeloperoxidase was measured in the homogenate using o-phenylenediamine as a chromagen, as described by A. Voller, D. E. Bidwell and A. Bartlett in The Enzyme Linked Immunosorbent Assay (ELISA), Zoological Soc., London, 1979, pages 29-30. Control animals were pretreated with the vehicle and saline in place of acetic acid.

[2] = Rat In Vivo Model of Myocardial Ischemia (free radical generator infusion); parameters: species or system male spontaneously hypertensive rats; details: 10 mg/kg iv; for Rat Ischemia Model % Infarction: percent of left ventricle infarcted of the animals with an infarct
Method: In this preparation a free radical generating (FRG) system consisting of purine (2.3 mM), xanthine oxidase (0.02 U/ml) and iron loaded transferring (0.6 μM) complex is infused into the carotid artery near the ostium of the coronary artery in spontaneously hypertensive rats. Blood is withdrawn before and 24 hours after the FRG challenge for measuring the isoenzymes of lactic acid dehydrogenase (LDH1 :LDH2). An increase in LDH1 :LDH2 ratio reflects cell damage to the myocardium. The electrocardiogram is also taken before and 24 hours after the FRG infusion. At the end of the experiment the heart is removed, sliced in a breadloaf fashion, and stained with triphenyltetrazolium chloride to determine infarct size. A drug or vehicle is administered intravenously 10-30 minutes before the FRG challenge. A drug is considered active if there is no elevation of the LDH1 :LDH2 ratio, no ECG abnormalities and no histologic evidence of an infarction.
Male spontaneously hypertensive rats (280-320 g) from Taconic Farms, were lightly anesthetized with sodium pentobarbital (30-50 mg/kg, i.p.). […] A catheter of PE 50 tubing was inserted into the right common carotid artery to a position proximal to the ostia of the coronary arteries and used to sample blood and infuse the free radical generator (FRG) system. A second catheter of PE 10 tubing was inserted into the left jugular vein to administer drugs. The infusion system for the FRG consisted of a double syringe infusion pump, Sage Model 351, with one syringe containing xanthine oxidase (0.01 units/ml) in a HEPES (0.05M) buffer and the other syringe containing purine (2.3 mM) plus Fe^3+ loaded transferring (0.06 μM) in a HEPES (0.05M) buffer. The FRG infused separately mixes simultaneously near the ostia of the coronary arteries. This infusion was delivered at a rate of 0.03 ml/minute for a total infusion time of 10 minutes. The drugs were infused over a one minute period in a 0.9% saline vehicle.
Standard Lead II ECG was monitored continuously on a Hewlett-Packard 7758A recorder prior to treatment, throughout the FRG infusion and 10 minutes post infusion. Catheters were removed and animals were allowed to recover and fed standard rat chow and water ad libitum. 24 hours following the FRG infusion, animals were reanesthetized with sodium pentobarbital (30-50 mg/kg, i.p.) and an ECG was obtained. Blood samples were taken prior to and after the FRG infusion and at the conclusion of the experiment. These samples were centrifuged and assayed for total lactate dehydrogenase (LDH) and lactate dehydrogenase isoenzymes (LDH1 :LDH2), using electrophoresis.
The animals were sacrificed, the hearts rapidly excised, and washed free of blood and sectioned. The left ventricle was weighed and stored in a Revco® freezer at -70° C. The left ventricle was sliced into 2 mm-thick rings, incubated in a 1% triphenyltetrazolium chloride solution for 20 minutes, and then fixed in a 10% formalin solution. Infarcted areas were measured and quantitated as a percentage of the total left ventricular volume.

Carrageenan pleurisy = experiment: Carrageenan Pleurisy Test (In Vivo); parameters: species or system male Lewis rats; details: Rattus norvegicus, po, read-out: Rat Carrageenan Pleurisy % Inhib. of Exudate Volume
ear edema = experiment: Mouse Ear Edema Test (In Vivo), arachidonic acid; parameters: species or system CD-1 male mice; details: topical, 1 h, at 1 mg topically
Excerpt: Invest. Dermatol. 80:48 (1983) and Hames, Opas and Bonney, "Arachidonic Acid Metabolites in Mouse Ear Edema" Advances in Inflammation Research, 11:57 (1986). […] CD-1 male mice weighing 15 to 25 g were employed, and they were designated as follows: (1) Control Group, in which no arachidonic acid or test compound was to be applied, (2) Arachidonic Acid-Treated Group, in which no test compound was to be applied, and (3) Treated Group, in which the test compound was to be applied first, followed by the application of arachidonic acid. In the case of the Group (3) animals, the test compound, dissolved in acetone, was applied to the dorsal surface of the right ear of the mouse with a 25-microliter pipettor, with the dose of the test compound being varied. After 0.5 hours in some cases and 4 hours in others, the arachidonic acid was topically applied in the same manner as above to the pretreated ear areas. In each case of arachidonic acid application, an amount of 0.5 mg dissolved in 25 microliters of acetone was used. After 1 hour, the mice were sacrificed by carbon dioxide inhalation. A 6 mm-diameter standard biopsy punch was used to obtain a uniform tissue sample from the ear of each mouse so treated, and the tissue samples were weighed to the nearest 0.1 mg. The percent inhibition of ear edema formation was calculated as follows: [formula]

Row | SMILES | Rat Acetic Acid Colitis Model % Inhib. of Myeloperoxidase Accumulation ([1]; 10 mg/kg p.o) | Rat Acetic Acid Colitis Model % Inhib. of Myeloperoxidase Accumulation ([1]; 100 mg/kg p.o) | Rat Ischemia Model Infarcts/Total [2] | Rat Ischemia Model % Infarction [2] | inhibition in vivo at 75 mg/kg (Carrageenan pleurisy; at 75 mg/kg p.o) | inhibition in vivo at 1 mg (ear edema) | inhibition in vivo at 100 mg/kg (Carrageenan pleurisy; at 100 mg/kg p.o)
1 | CCCc1c(OCCCCCCc2ccc(C(C)C)c(O)c2O)ccc(C(=O)O)c1O [4-[6-[2,3-dihydroxy-4-(1-methylethyl)phenyl]hexyloxy]-2-hydroxy-3-propylbenzoic acid] | 53 ± 12% | 86 ± 9% | 1/5 | 5% | 47% | 45% | –
2 | CCCc1c(OCCCCCCCCc2cccc(O)c2O)ccc(C(=O)O)c1O [4-[8-(2,3-dihydroxyphenyl)octyloxy]-2-hydroxy-3-propylbenzoic acid] | 35 ± 7% | 27 ± 3% | 1/5 | 8% | – | 78% | 66%
